Source: patent publication US20250388602A1 (Genase Therapeutics B.V., priority 2022, published 2025)
Read-outs that look alike come from different tables or passages of the source.

How the values were obtained:
in vitro [1] = conditions: for HLM % remaining: % remaining at 60 min, 1 μM; for half-life at 1 μM: both, human
Procedure: Human Liver Microsomal metabolic stability: The microsomal metabolic stability assay utilized pooled human liver microsomes (mixed gender, BD Gentest), with supplemented cofactors NADPH and UDPGA (Solarbio S&T Co., LTD). Two separate experiments were performed as follows: • a) With cofactors (NADPH & UDPGA): 25 μL of 10 mM NADPH and 25 μL of 20 mM UDPGA were added to 197.5 μL of reaction solution (phosphate buffer (final concentration in assay 100 mM), MgCl2 (final concentration in assay (5 mM)), alamethacin (final concentration in assay 0.025 mg/mL) and microsomes (final concentration in assay 0.5 mg/mL). • b) Without cofactors (NADPH & UDPGA): 50 μL of H2O was added to 197.5 μL of reaction solution.
The mixture was pre-warmed at 37° C. for 10 minutes. The reaction was started with the addition of 2.5 μL of 100 μM control compound or test compound solutions. Diclofenac was used as positive control in this study. The final concentration of control compound and test compounds was 1 μM. Aliquots of 25 μL were taken from the reaction solution at 0.5, 5, 15, 30 and 60 minutes. The reaction was stopped by the addition of 5 volumes of cold acetonitrile containing internal standards. Samples were centrifuged at 3,220 g for 40 minutes. An aliquot of 100 μL of the supernatant was mixed with 100 μL of ultra-pure H2O and then used for LC-MS/MS analysis. Peak areas were determined from extracted ion chromatograms. Percent parent remaining was calculated from the area ratio of test compound. The slope value was determined by linear regression of the natural logarithm of percent parent remaining versus incubation time curve.
(§1) Peak areas were determined from extracted ion chromatograms to determine the in vitro half-life (t½) of parent compound by regression analysis of the percent parent disappearance vs. time curve. The in vitro half-life (in vitro t½) was determined from the slope value (in vitro t½=−0.693/k). All calculations were carried out using Microsoft Excel.

in vitro [2] = conditions: for hHEPs % remaining: 1 μM
Procedure: Human Hepatocyte metabolic stability: Human hepatocytes (X008000, BioIVT) were freshly thawed prior to the incubations with test compound. Hepatocytes were transferred to 50 mL conical tubes and centrifuged 10 min at 100 g. Thawing medium was removed and replaced by preheated (37° C.) incubation medium (William's E Medium supplemented with GlutaMAX), to yield a hepatocyte density ˜1.5×10^6 cells/mL. Cell viability was determined using AO/PI staining and hepatocytes were diluted using incubation medium to a working density of 0.5×10^6 viable cells/mL. 198 μL of hepatocytes were added into each well of a 96-well plate and placed in the incubator to allow the hepatocytes to warm for 10 minutes. 2 μL test compound or positive control was placed into respective wells of the 96-well plate (final concentration test compound 1 μM) to start the reaction. The plate was returned to the incubator and 25 μL aliquots of the well contents were removed at time points of 0, 15, 30, 60, 90 and 120 minutes. The aliquots were mixed with 6 volumes (150 μL) of acetonitrile containing internal standards (100 nM alprazolam, 200 nM caffeine, and 100 nM tolbutamide) to terminate the reaction. The plate was centrifuged for 20 minutes at 3,200 g. Aliquots of 150 μL of the supernatants were used for LC/MS/MS analysis. All incubations were performed in duplicate.
as §1

MOLM-13 cells = assay: MOLM-13 cell viability (Assay B), Cell Titer-Glo; assay type: cell-based; conditions: for IC50: Homo sapiens, read-out: IC50 MOLM13 inhibition activity
Procedure: MOLM-13 cells (an acute myeloid leukemia cell line) were plated in RPMI supplied with 10% FBS and 1% Pen/Strep in 384-well plates at 1,000 cells per well on day 0. On day 1, treatment of the cells with compound (concentration range 10E-5 and 6E-12 M) was initiated in the presence or absence of 100 μM uridine. After 72 hours incubation of the cells with or without test compound, the number of viable cells per well was assessed by Cell Titer-Glo Luminescent Cell Viability Assay (Promega, Madison, WI, USA). […] Each condition was tested in duplicate and the potency of test compounds was determined from two independent experiments.

recombinant human DHODH = recombinant human DHODH (Homo sapiens (Human), UniProt Q02127); assay: DHODH enzyme assay (Assay A), DCIP absorbance; assay type: biochemical
Procedure: Inhibition of human dihydroorotate dehydrogenase (DHODH) by example compounds as described herein was determined using one of two assays as described below.
DHODH enzyme assays were performed with 6 nM recombinant human DHODH (purified essentially as described by Walse et al., Biochemistry, 47, 8929-8936 (2008)). The reaction mixture consisted of 1 mM DL-dihydroorotic acid (#D7003, Sigma-Aldrich), 100 μM 3,4-dimethoxy-5-methyl-p-benzoquinone (#D9150, Sigma-Aldrich), and 100 μM 2,6-dichlorophenolindophenol sodium salt (DCIP) (#D1878, Sigma-Aldrich) in enzyme buffer (50 mM Tris-HCl pH 8.0, 0.1% Triton X-100, 150 mM KCl). A stock solution of 20 mM DCIP was prepared in enzyme buffer and filtered through Whatman paper just before use. Reactions were performed in a total volume of 100 μL, consisting of 1 μL of compound, 49 μL of enzyme and 50 μL of reaction mixture. Loss in absorbance by chromogen DCIP was measured at 595 nm following a 70 minute incubation at 32° C.

[3] = MOLM-13, 72 hours, bins ≥10 nM-<100 nM and <10 nM
[4] = bins ≥10 nM-<100 nM and <10 nM, read-out: IC50 DHODH inhibition activity

recombinant human DHODH, sequence (Q02127 whole entry): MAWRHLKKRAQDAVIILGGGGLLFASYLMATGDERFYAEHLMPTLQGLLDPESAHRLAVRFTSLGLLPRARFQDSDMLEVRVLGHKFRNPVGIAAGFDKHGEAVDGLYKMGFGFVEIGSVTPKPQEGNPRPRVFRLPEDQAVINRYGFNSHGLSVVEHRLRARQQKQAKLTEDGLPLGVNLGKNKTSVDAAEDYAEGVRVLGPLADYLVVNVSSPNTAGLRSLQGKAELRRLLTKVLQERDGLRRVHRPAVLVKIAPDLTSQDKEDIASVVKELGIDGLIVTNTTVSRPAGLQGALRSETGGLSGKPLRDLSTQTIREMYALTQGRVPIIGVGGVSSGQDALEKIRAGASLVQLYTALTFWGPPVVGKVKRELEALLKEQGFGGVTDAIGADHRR

| SMILES | HLM % remaining (in vitro [1]) [%] | half-life at 1 μM (in vitro [1]; pooled liver microsomes) [h] | half-life at 1 μM (in vitro [2]; human, hepatocytes) [h] | IC50 (MOLM-13 cells; [3]) [nM] | IC50 (recombinant human DHODH; [4]) [nM] | hHEPs % remaining (in vitro [2]; % remaining at 120 min) [%] | other results |
| --- | --- | --- | --- | --- | --- | --- | --- |
| O=C(N[C@@H]1COCc2c1cnn2-c1ccccc1F)c1ncn2c1CCCC2 (single isomer, unassigned) [Ex-3] | 92 | > 6.08 | 9.97 | 10 to 100 | 10 to 100 |  | hHEPs % remaining (in vitro [2]; human, hepatocytes, 2 h): 87% |
| O=C(N[C@@H]1COCc2c1cnn2-c1ccccc1F)c1ncc2n1CCCC2 (single isomer, unassigned) [Ex-6] | 85 | 4.75 | 4.9 | 10 to 100 | 10 to 100 |  | hHEPs % remaining (in vitro [2]; human, hepatocytes, 2 h): 87% |
| O=C(N[C@H]1COCc2c1cnn2-c1c(F)cccc1Cl)c1ncn2c1CCCC2 (single isomer, unassigned) [Ex-10] | 100 | > 6.08 | > 10 |  |  | 100 |  |
| O=C(N[C@@H]1COCc2c1cnn2-c1c(F)cccc1Cl)c1ncn2c1CCCC2 (single isomer, unassigned) [Ex-11] | 93 | > 6.08 | > 10 | < 10 | < 10 | 90 | MOLM13 cell growth and/or viability (FIG. 2) (MOLM-13 cells; absence of uridine): reduce MOLM13 cell growth and/or viability; effect on MOLM13 cell growth and/or viability on addition of excess uridine (FIG. 2) (MOLM-13 cells; presence of 100 μM uridine): largely prevented |
| O=C(N[C@@H]1COCc2c1cnn2-c1c(Cl)cccc1Cl)c1ncn2c1CCCC2 (single isomer, unassigned) [Ex-13] | 88 | > 6.08 | > 10 | < 10 | < 10 | 95 |  |
| Cc1cccc(Cl)c1-n1ncc2c1COC[C@H]2NC(=O)c1ncn2c1CCCC2 [Ex-34, (S)—N-(1-(2-chloro-6-methylphenyl)-1,4,5,7-tetrahydropyrano[3,4-c]pyrazol-4-yl)-5,6,7,8-tetrahydroimidazo[1,5-a]pyridine-1-carboxamide] | 100 |  | > 10 |  | < 10 | 100 | half-life at 1 μM (in vitro [1]; microsomes): 5.62 h; IC50 (MOLM-13 cells; MOLM-13, 72 h): < 10 nM |
| O=C(N[C@@H]1COCc2c1cnn2-c1ccccc1F)c1n[nH]c2c1CCCC2 [Ex-42, (S)—N-(1-(2-fluorophenyl)-1,4,5,7-tetrahydropyrano[3,4-c]pyrazol-4-yl)-4,5,6,7-tetrahydro-1H-indazole-3-carboxamide] | 85 | 3.93 | 5.43 |  |  | 76 |  |
| O=C(N[C@@H]1COCc2c1cnn2-c1ccccc1F)c1noc2c1CCCC2 [Ex-43, (S)—N-(1-(2-fluorophenyl)-1,4,5,7-tetrahydropyrano[3,4-c]pyrazol-4-yl)-4,5,6,7-tetrahydrobenzo[d]isoxazole-3-carboxamide] | 92 | > 6.08 | > 10 |  |  | 93 |  |
| CCc1c(C(=O)N[C@@H]2COCc3c2cnn3-c2ccccc2F)n[nH]c1C [Ex-44, (S)-4-ethyl-N-(1-(2-fluorophenyl)-1,4,5,7-tetrahydropyrano[3,4-c]pyrazol-4-yl)-5-methyl-1H-pyrazole-3-carboxamide] | 92 |  | 9.35 |  |  |  | half-life at 1 μM (in vitro [1]; pooled human liver microsomes): > 6.08 h |
| Cc1cnc(C(=O)N[C@@H]2COCc3c2cnn3-c2ccccc2F)cc1C [Ex-45, (S)—N-(1-(2-fluorophenyl)-1,4,5,7-tetrahydropyrano[3,4-c]pyrazol-4-yl)-4,5-dimethylpicolinamide] | 88 | 4.57 | 4.77 |  |  | 72 |  |
| CN(C)C(=O)COc1cccc(-n2ncc3c2COC[C@H]3NC(=O)c2ncn3c2CCCC3)c1Cl [Ex-64, (S)—N-(1-(2-chloro-3-(2-(dimethylamino)-2-oxoethoxy)phenyl)-1,4,5,7-tetrahydropyrano[3,4-c]pyrazol-4-yl)-5,6,7,8-tetrahydroimidazo[1,5-a]pyridine-1-carboxamide] |  |  |  | 10 to 100 |  |  | IC50 (recombinant human DHODH): 10 to 100 nM |
| COCCOc1cccc(-n2ncc3c2COC[C@H]3NC(=O)c2ncn3c2CCCC3)c1Cl [Ex-67, (S)—N-(1-(2-chloro-3-(2-methoxyethoxy)phenyl)-1,4,5,7-tetrahydropyrano[3,4-c]pyrazol-4-yl)-5,6,7,8-tetrahydroimidazo[1,5-a]pyridine-1-carboxamide] |  |  |  | < 10 |  |  | IC50 (recombinant human DHODH; read-out: IC50 DHODH inhibition activity): < 10 nM |
| O=C(N[C@@H]1COCc2c1cnn2-c1cccc(OCCO)c1Cl)c1ncn2c1CCCC2 [Ex-68, (S)—N-(1-(2-chloro-3-(2-hydroxyethoxy)phenyl)-1,4,5,7-tetrahydropyrano[3,4-c]pyrazol-4-yl)-5,6,7,8-tetrahydroimidazo[1,5-a]pyridine-1-carboxamide] |  |  |  |  |  |  | IC50 (MOLM-13 cells; MOLM-13, 72 h): 10 to 100 nM; IC50 (recombinant human DHODH): 10 to 100 nM |
| O=C(N[C@@H]1COCc2c1cnn2-c1cccc(C(=O)N2CCCC2)c1Cl)c1ncn2c1CCCC2 [Ex-71, (S)—N-(1-(2-chloro-3-(pyrrolidine-1-carbonyl)phenyl)-1,4,5,7-tetrahydropyrano[3,4-c]pyrazol-4-yl)-5,6,7,8-tetrahydroimidazo[1,5-a]pyridine-1-carboxamide] |  |  |  | 10 to 100 | 10 to 100 |  |  |
| O=C(N[C@@H]1COCc2c1cnn2-c1cccc(C(=O)N2CCCCC2)c1Cl)c1ncn2c1CCCC2 [Ex-72, (S)—N-(1-(2-chloro-3-(piperidine-1-carbonyl)phenyl)-1,4,5,7-tetrahydropyrano[3,4-c]pyrazol-4-yl)-5,6,7,8-tetrahydroimidazo[1,5-a]pyridine-1-carboxamide] |  |  |  | < 10 | < 10 |  |  |
| O=C(N[C@@H]1COCc2c1cnn2-c1cccc(C(=O)N2CCOCC2)c1Cl)c1ncn2c1CCCC2 [Ex-73, (S)—N-(1-(2-chloro-3-(morpholine-4-carbonyl)phenyl)-1,4,5,7-tetrahydropyrano[3,4-c]pyrazol-4-yl)-5,6,7,8-tetrahydroimidazo[1,5-a]pyridine-1-carboxamide] |  |  |  | 10 to 100 |  |  | IC50 (recombinant human DHODH): 10 to 100 nM |
| CCN(CC)C(=O)c1cccc(-n2ncc3c2COC[C@H]3NC(=O)c2ncn3c2CCCC3)c1Cl [Ex-74, (S)—N-(1-(2-chloro-3-(diethylcarbamoyl)phenyl)-1,4,5,7-tetrahydropyrano[3,4-c]pyrazol-4-yl)-5,6,7,8-tetrahydroimidazo[1,5-a]pyridine-1-carboxamide] |  |  |  | 10 to 100 | 10 to 100 |  |  |
